Reference: US12024489B2, “Complex salt of rupestonic acid and alkaloid, preparation method therefor and use thereof” (XIAMEN INSTITUTE OF RARE EARTH MATERIALS, priority 2022, dated 2024)

Assays:
[1] = system: cervical carcinoma cell line (Hela); assay: In vitro anti-tumor activity test (CCK8), cervical carcinoma cell line; type: cell-based; details: Hela cells, 48 h incubation, CCK8, absorbance 450 nm
Experimental: (§1) The obtained Artemisia Rupestris complex salts were subjected to an in vitro anti-tumor activity test, in which the in vitro inhibitory activity of the Artemisia Rupestris complex salts on the lung adenocarcinoma cell line (A549) and cervical carcinoma cell line (Hela) was mainly researched. The specific test process was illustrated by the process for testing the lung adenocarcinoma cell line (A549):
(§2) The prepared Artemisia Rupestris complex salt was weighed, added into a 5 mL plastic centrifuge tube and diluted to
(§3) 1 mL with DMSO, to obtain a test sample at an initial concentration. Then the test sample at an initial concentration was serially diluted with DMSO to obtain test samples in 5 different concentration gradients in sequence, which were stored in a refrigerator at 4° C. for later use.
(§4) The lung adenocarcinoma cell line (A549) was incubated in an incubator for 24 h under the conditions of 37° C., 5% CO2, and saturated humidity. When the cells were in logarithmic growth phase, the culture supernatant was discarded, and the residue was digested with 0.25% trypsin-EDTA solution. Then, the digestion was terminated with high glucose medium. The cells were seeded in a 96-well plate with a cell density of 5000 cells/well. The 96-well plate was incubated in an incubator for 24 h. Then the cell culture supernatant in the 96-well plate was discarded. 100 μL of high glucose medium was added to the 96-well plate, and test samples at different concentrations were added to wells at 1 μL/well (5 duplicate wells were set for each concentration). After the plate was incubated in an incubator for 48 h under the conditions of 37° C., saturated humidity and 5% CO2, 10 μL of CCK8 was added to each well, and the plate was then incubated in the incubator at 37° C. for 1-4 h. The absorbance of each well at 450 nm was measured on a multifunctional microplate reader. Inhibition rate %=[(ODcontrol cells−ODtreatment cells)/(ODcontrol cells−ODblank)]×100. Negative control was a mixed solution of Vhigh glucose medium and VDMSO at a ratio of 10:1.
The process for testing the inhibition of those compounds on the cervical cancer cell line (Hela) was the same as above.

[2] = system: lung adenocarcinoma cell line (A549); assay: In vitro anti-tumor activity test (CCK8), lung adenocarcinoma cell line; type: cell-based; details: A549 cells, 48 h incubation, CCK8, absorbance 450 nm
Experimental: as §1, §2, §3, §4

Row | Molecule | IC50 ([1]; Homo sapiens) | IC50 [1] | IC50 [2] | IC50 ([2]; Homo sapiens) | also measured
1 | O=C1CCC[C@@H]2[C@H]3CCC[N+]4([O-])CCC[C@@H](CN12)[C@@H]34 (stereo partly shown) [Oxymatrine] | 0.95 µM |  |  |  | 
2 | complex salt of rupestonic acid and sophocarpine |  | 115 µM | 714 µM |  | 
3 | O=C1CCC[C@@H]2[C@H]3CCCN4CCC[C@H](CN12)[C@@H]34 [Sophoridine] | 1490 µM |  |  | 16000 µM | 
4 | complex salt of rupestonic acid and matrine |  | 11.8 µM | 1.49 µM |  | 
5 | O=C1C=CC[C@@H]2[C@H]3CCCN4CCC[C@@H](CN12)[C@@H]34 [Sophocarpine] | 122 µM |  |  | 241 µM | 
6 | complex salt of rupestonic acid and sophoridine |  | 17.9 µM | 61.3 µM |  | 
7 | O=C1CCC[C@@H]2[C@H]3CCCN4CCC[C@@H](CN12)[C@@H]34 [Matrine] | 774 µM |  |  | 6370 µM | 
8 | complex salt of rupestonic acid and oxymatrine |  | 25.2 µM |  |  | 
9 | C=C(C(=O)O)[C@H]1CC[C@H](C)[C@@H]2CC(=O)C(C)=C2C1 [Rupestonic acid] |  |  |  |  | IC50 (μM) Hela [1]: Inactive; IC50 (μM) A549 [2]: Inactive
